Test results reported in US12600714B2, “Substituted pyrazinecarboxamide compounds for treating diseases related to EGFR mutation” (WIGEN BIOMEDICINE TECHNOLOGY (SHANGHAI) CO., LTD., priority 2020, dated 2026).

Test system: EGFR (del19/T790M/C797S)
Test: HTRF inhibitory activity assay against EGFR (del19/T790M/C797S) enzyme
Format: biochemical
Protocol: Inhibitory Activity Assay of the Compounds Disclosed Herein Against EGFR (del19/T790M/C797S), EGFR (L858R/T790M/C797S) or EGFR (WT) Enzymes
The inhibitory effects of the compounds against EGFR (del19/T790M/C797S), EGFR (L858R/T790M/C797S) or EGFR (WT) enzyme activity was determined by using HTRF. The procedures are as follows:
The WT or mutant EGFR proteins were incubated with a serially diluted compounds at 28° C. for 10 min followed by addition of biotin-labeled general tyrosine kinase (TK) substrate and ATP. The mixture was incubated at room temperature for 40 min for reaction. After the termination of the reaction, an Eu3+-Cryptate-labeled antibody against TK and streptavidin-XL665 were added and the mixture was incubated at room temperature for 60 min. The luminescences at 615 nm and 665 nm were detected and the ratio of 665/615 was calculated to quantify the level of TK substrate phosphorylation. Inhibition % and IC50 of the compounds were calculated relative to the control group.

Compound	EGFR (del19/T790M/C797S) inhibition (%) (0.3 nM compound)
CN1CCN(C2CCN(c3ccc(Nc4nc(Oc5ccccc5)c(-c5ccccc5)nc4C(N)=O)cc3)CC2)CC1 [compound 6]	+ (+ indicates an inhibition less than or equal to 20%)
CN1CCC(Nc2nc(Nc3ccc(N4CCC(N5CCN(C)CC5)CC4)cc3)c(C(N)=O)nc2-c2ccccc2)CC1 [compound 7]	+ (+ indicates an inhibition less than or equal to 20%)
CN1CCN(C2CCN(c3ccc(Nc4nc(NC5CCCC5(C)O)c(-c5ccccc5)nc4C(N)=O)cc3)CC2)CC1 (stereo not drawn) [compound 8]	+ (+ indicates an inhibition less than or equal to 20%)
CN1CCN(C2CCN(c3ccc(Nc4nc(NC5CCCC5)c(-c5ccccc5)nc4C(N)=O)cc3)CC2)CC1 [compound 9]	+ (+ indicates an inhibition less than or equal to 20%)
CN1CCN(C2CCN(c3ccc(Nc4nc(OC5CCOCC5)c(-c5ccccc5)nc4C(N)=O)cc3)CC2)CC1 [compound 12]	+ (+ indicates an inhibition less than or equal to 20%)
CN1CCN(C2CCN(c3ccc(Nc4nc(N5CCCCC5)c(-c5ccccc5)nc4C(N)=O)cc3)CC2)CC1 [compound 15]	+ (+ indicates an inhibition less than or equal to 20%)
CN1CCN(C2CCN(c3ccc(Nc4nc(O[C@@H]5CCOC5)c(-c5ccccc5)nc4C(N)=O)cc3)CC2)CC1 [compound 16]	+ (+ indicates an inhibition less than or equal to 20%)
CN1CCN(C2CCN(c3ccc(Nc4nc(N5CCCC5)c(-c5ccccc5)nc4C(N)=O)cc3)CC2)CC1 [compound 17]	+ (+ indicates an inhibition less than or equal to 20%)
CN1CCN(C2CCN(c3ccc(Nc4nc(O[C@H]5CCOC5)c(-c5ccccc5)nc4C(N)=O)cc3)CC2)CC1 [compound 18]	+ (+ indicates an inhibition less than or equal to 20%)
COc1nc(Nc2ccc(N3CCC(N4CCN(C)CC4)CC3)cc2)c(C(N)=O)nc1-c1ccccc1 [compound 19, 5-methoxy-3-((4-(4-(4-methylpiperazin-1-yl)piperidin-1-yl)phenyl)amino)-6-phenylpyrazine-2-carboxamide]	+ (+ indicates an inhibition less than or equal to 20%)
CN1CCN(C2CCN(c3ccc(Nc4nc(NCCC(C)(C)O)c(-c5ccccc5)nc4C(N)=O)cc3)CC2)CC1 [compound 22]	+ (+ indicates an inhibition less than or equal to 20%)
CN1CCN(C2CCN(c3ccc(Nc4nc(N[C@H]5CC[C@@H](O)CC5)c(-c5ccccc5)nc4C(N)=O)cc3)CC2)CC1 [compound 24]	++ (++ indicates an inhibition from 20% to 50%)
CN1CCN(C2CCN(c3ccc(Nc4nc(OCC(F)(F)F)c(-c5ccccc5)nc4C(N)=O)cc3)CC2)CC1 [compound 25]	+ (+ indicates an inhibition less than or equal to 20%)
CN1CCN(C2CCN(c3ccc(Nc4nc(NCCCS(C)(=O)=O)c(-c5ccccc5)nc4C(N)=O)cc3)CC2)CC1 [compound 27]	+ (+ indicates an inhibition less than or equal to 20%)
CN(C)CCNc1nc(Nc2ccc(N3CCC(N4CCN(C)CC4)CC3)cc2)c(C(N)=O)nc1-c1ccccc1 [compound 28]	+ (+ indicates an inhibition less than or equal to 20%)
CN1CCN(C2CCN(c3ccc(Nc4nc(N5CCC(O)C5)c(-c5ccccc5)nc4C(N)=O)cc3)CC2)CC1 (stereo not drawn) [compound 29]	++ (++ indicates an inhibition from 20% to 50%)
CN1CCN(C2CCN(c3ccc(Nc4nc(NC5CCC5)c(-c5ccccc5)nc4C(N)=O)cc3)CC2)CC1 [compound 30]	++ (++ indicates an inhibition from 20% to 50%)

Compound	EGFR (del19/T790M/C797S) inhibition (%) (0.3 nM compound)
CN1CCN(c2ccc(Nc3nc(NC4CCOCC4)c(-c4ccccc4C(N)=O)nc3C(N)=O)cc2)CC1 [compound 36]	+ (+ indicates an inhibition less than or equal to 20%)
CN1CCN(C2CCN(c3ccc(Nc4nc(NC5CCOCC5)c(-c5cnn(C)c5)nc4C(N)=O)cc3)CC2)CC1 [compound 40]	+ (+ indicates an inhibition less than or equal to 20%)
COc1ccccc1-c1nc(C(N)=O)c(Nc2ccc(N3CCC(N4CCN(C)CC4)CC3)cc2)nc1NC1CCOCC1 [compound 42]	+ (+ indicates an inhibition less than or equal to 20%)
CN1CCN(C2CCN(c3ccc(Nc4nc(NC5CCOCC5)c(-c5cccc(O)c5)nc4C(N)=O)cc3)CC2)CC1 [compound 43]	+ (+ indicates an inhibition less than or equal to 20%)
CN1CCN(C2CCN(c3ccc(Nc4nc(NC5CCOCC5)c(-c5cccc(S(C)(=O)=O)c5)nc4C(N)=O)cc3)CC2)CC1 [compound 44]	+ (+ indicates an inhibition less than or equal to 20%)
COc1ccc(-c2nc(C(N)=O)c(Nc3ccc(N4CCC(N5CCN(C)CC5)CC4)cc3)nc2NC2CCOCC2)cc1 [compound 45]	+ (+ indicates an inhibition less than or equal to 20%)
CN1CCN(C2CCN(c3ccc(Nc4nc(NC5CCOCC5)c(-c5ccc(S(C)(=O)=O)cc5)nc4C(N)=O)cc3)CC2)CC1 [compound 46]	+ (+ indicates an inhibition less than or equal to 20%)
CN1CCN(C2CCN(c3ccc(Nc4nc(NC5CCOCC5)c(-c5cccc(C#N)c5)nc4C(N)=O)cc3)CC2)CC1 [compound 47]	+ (+ indicates an inhibition less than or equal to 20%)
CN1CCN(C2CCN(c3ccc(Nc4nc(NC5CCOCC5)c(-c5ccn(C)n5)nc4C(N)=O)cc3)CC2)CC1 [compound 49]	+ (+ indicates an inhibition less than or equal to 20%)
CN1CCN(C2CCN(c3ccc(Nc4nc(NC5CCOCC5)c(-c5ccnn5C)nc4C(N)=O)cc3)CC2)CC1 [compound 50]	+ (+ indicates an inhibition less than or equal to 20%)
COc1cccc(-c2nc(C(N)=O)c(Nc3ccc(N4CCC(N5CCN(C)CC5)CC4)cc3)nc2NC2CCOCC2)c1 [compound 51]	+ (+ indicates an inhibition less than or equal to 20%)
CN1CCN(C2CCN(c3ccc(Nc4nc(NC5CCOCC5)c(-c5ccc(C#N)cc5)nc4C(N)=O)cc3)CC2)CC1 [compound 53]	+ (+ indicates an inhibition less than or equal to 20%)
Cc1cnccc1-c1nc(C(N)=O)c(Nc2ccc(N3CCC(N4CCN(C)CC4)CC3)cc2)nc1NC1CCOCC1 [compound 56]	+ (+ indicates an inhibition less than or equal to 20%)
CN1CCN(C2CCN(c3ccc(Nc4nc(NC5CCOCC5)c(-c5cccc(Cl)c5)nc4C(N)=O)cc3)CC2)CC1 [compound 61]	++ (++ indicates an inhibition from 20% to 50%)
CN1CCN(C2CCN(c3ccc(Nc4nc(NC5CCOCC5)c(-c5ccccc5F)nc4C(N)=O)cc3)CC2)CC1 [compound 62]	+ (+ indicates an inhibition less than or equal to 20%)
CN1CCN(C2CCN(c3ccc(Nc4nc(NC5CCOCC5)c(-c5ccccc5Cl)nc4C(N)=O)cc3)CC2)CC1 [compound 63]	+ (+ indicates an inhibition less than or equal to 20%)
